The values that follow come from ChEMBL document CHEMBL1137640, “In vitro antimycobacterial spectrum of a diarylquinoline ATP synthase inhibitor” (2007).

The test system of this assay is Mycobacterium tuberculosis. Nature of the assay: Antimicrobial activity against multidrug-resistant Mycobacterium tuberculosis isolate after 2 to 4 weeks by two fold dilution method. The assay is classed as functional.

Values after ≈ are worked out from the molar mass of the structure shown.

What is called MIC is the lowest concentration that inhibits growth of the organism. A lower MIC goes with a more susceptible organism. A word on the MIC50: it is an inhibitory concentration at the 50% level, which refers to growth in some studies and to a panel of isolates in others. High values mean weaker potency, low ones greater potency. As a reminder, the MIC90 is an inhibitory concentration at the 90% level, which refers to growth in some studies and to a panel of isolates in others. High values mean lower susceptibility, low ones higher susceptibility. With `COc1nc2ccc(Br)cc2cc1[C@@H](c1ccccc1)[C@@](O)(CCN(C)C)c1cccc2ccccc12` [BEDAQUILINE], the MIC is 0.004 µg/mL (≈ 0.0072 µM), the MIC50 worked out at 0.03 µg/mL (≈ 0.054 µM) and the MIC90 worked out at 0.06 µg/mL (≈ 0.108 µM).
